Assay results as given in patent publication US12686686B2 (priority 2020, dated 2026).
Entries after “also recorded” stand apart in the source; their conditions may differ. Read-outs that look alike come from different tables or passages of the source.

Legend:
C4-2B = test: Cytotoxic activity test (MTT) on C4-2B prostate cancer cells; type: cell-based, human; details: C4-2B cells
Protocol: (§1) All prostate cancer cells were cultured with a RPMI-1640 medium containing 10% calf serum, 100 units of penicillin per milliliter and 100 µg/mL of streptomycin in a constant temperature incubator containing 5% carbon dioxide at a saturated humidity of 37° C.
(§2) Cells in the logarithmic phase of growth were taken and cultured in 96-well plates for 24 hours (5×10^3 cells/well), then treated with different concentrations of the compounds to be tested, and incubated by MTT method for 4 hours. The supernatant was removed by centrifugation, the MTT crystals were dissolved by adding DMSO, and the absorbance value was measured by an enzyme-linked immunosorbent assay at a wavelength of 570 nm. The cytotoxic activity of the compounds to be tested on cancer cells was expressed as IC50.

RWPE-1 = test: Cytotoxic activity test (MTT) on normal human prostate cell RWPE-1; type: cell-based
Protocol: as §1, §2

22RV1 = test: Cytotoxic activity test (MTT) on 22RV1 prostate cancer cells; type: cell-based, human; details: 22RV1 cells, MTT, read-out: Prostate cancer cells IC50 22RV1
Protocol: as §1, §2

C4-2B/ENZR = test: Cytotoxic activity test (MTT) on C4-2B/ENZR prostate cancer cells; type: cell-based, human; details: C4-2B/ENZR cells
Protocol: as §1, §2

Vcap-CRPC = test: Cytotoxic activity test (MTT) on Vcap-CRPC prostate cancer cells; type: cell-based, human; details: Vcap-CRPC cells, MTT, read-out: Prostate cancer cells IC50 Vcap-CRPC
Protocol: as §1, §2

LNcap = test: Cytotoxic activity test (MTT) on LNcap prostate cancer cells; type: cell-based, human; details: LNcap cells, MTT, read-out: Prostate cancer cells IC50 LNcap
Protocol: as §1, §2

prostate cancer cells = test: Inhibitory activity on a variety of prostate cancer cells (Table 1); type: cell-based, human; details: structure-activity statements on Table 1
Protocol: as §1, §2

[1] = normal human prostate cell RWPE-1, MTT, read-out: Normal cells RWPE-1 (IC50)
[2] = Homo sapiens, RWPE-1, read-out: Normal cells RWPE-1 (IC50)

| Compound | IC50 (RWPE-1; [1]) [nM] | IC50 (22RV1) [nM] | IC50 (C4-2B) [nM] | IC50 (C4-2B/ENZR) [nM] | further results |
| --- | --- | --- | --- | --- | --- |
| COc1cccc2c1C(=O)c1c(O)c3c(c(O)c1C2=O)C[C@@](O)(C(=O)CO)C[C@@H]3O[C@H]1C[C@H](N)[C@H](O)[C@H](C)O1 [DOX, doxorubicin, reference compound] | 33.3 | – | – | – | IC50 (C4-2B; Homo sapiens): 1.04 nM; IC50 (22RV1; Homo sapiens): 5.99 nM; IC50 (C4-2B/ENZR; Homo sapiens): 2.87 nM; IC50 (Vcap-CRPC; Homo sapiens): 12.4 nM |
| C=C(C)[C@@]12OC3(c4ccccc4)O[C@@H]1[C@@H]1[C@@H]4O[C@]4(CO)[C@@H](O)[C@]4(O)C(=O)C(C)=C[C@H]4[C@@]1(O3)[C@H](C)[C@H]2OC(=O)CCC [YH-1] | 43500 | 5.74 | – | – | – |
| C=C(C)[C@@]12OC3(c4ccccc4)O[C@@H]1[C@@H]1[C@@H]4O[C@]4(CO)[C@@H](O)[C@]4(O)C(=O)C(C)=C[C@H]4[C@@]1(O3)[C@H](C)[C@H]2OC(=O)C(C)C [YH-2] | 40300 | 26.5 | – | – | – |
| C=C(C)[C@@]12OC3(c4ccccc4)O[C@@H]1[C@@H]1[C@@H]4O[C@]4(CO)[C@@H](O)[C@]4(O)C(=O)C(C)=C[C@H]4[C@@]1(O3)[C@H](C)[C@H]2OC(=O)CC [YH-3] | 57200 | 434 | 8.95 | – | IC50 (LNcap): 3.77 nM; IC50 (Vcap-CRPC): 1.74 nM |
| C=C(C)[C@@]12OC3(c4ccccc4)O[C@@H]1[C@@H]1[C@@H]4O[C@]4(CO)[C@@H](O)[C@]4(O)C(=O)C(C)=C[C@H]4[C@@]1(O3)[C@H](C)[C@H]2OC(C)=O [YH-6] | 44200 | – | – | – | IC50 (C4-2B; Homo sapiens): 0.367 nM; IC50 (LNcap; Homo sapiens): 3.89 nM; IC50 (22RV1; Homo sapiens): 52.5 nM; IC50 (C4-2B/ENZR; Homo sapiens): 2.34 nM; IC50 (Vcap-CRPC; Homo sapiens): 21.2 nM |
| C=C(C)[C@@]12OC3(c4ccccc4)O[C@@H]1[C@@H]1[C@@H]4O[C@]4(COC(=O)c4ccccc4)[C@@H](O)[C@]4(O)C(=O)C(C)=C[C@H]4[C@@]1(O3)[C@H](C)[C@H]2OC(C)=O [YH-9] | – | – | – | – | inhibitory activity on prostate cancer cells (in words) (prostate cancer cells): significant decrease in activity; IC50 (C4-2B; Homo sapiens): 380 nM; IC50 (C4-2B/ENZR; Homo sapiens): 1460 nM |
| C=C(C)[C@@]12OC3(c4ccccc4)O[C@@H]1[C@@H]1[C@@H]4O[C@]4(CO)[C@@H](O)[C@]4(O)C(=O)C(C)=C[C@H]4[C@@]1(O3)[C@H](C)[C@H]2OC(=O)c1ccccc1 [YH-11] | 13400 | – | – | – | inhibitory activity on prostate cancer cells (in words) (prostate cancer cells): most prominent |
| C=C(C)[C@@]12OC3(c4ccccc4)O[C@@H]1[C@@H]1[C@@H]4O[C@]4(COC(C)=O)[C@@H](OC(C)=O)[C@]4(O)C(=O)C(C)=C[C@H]4[C@@]1(O3)[C@H](C)[C@H]2OC(=O)c1ccccc1 [YH-12] | – | – | – | – | inhibitory activity on prostate cancer cells (in words) (prostate cancer cells): significant decrease in activity; IC50 (C4-2B; Homo sapiens): 557 nM; IC50 (C4-2B/ENZR; Homo sapiens): 1900 nM |
| C=C(C)[C@@]12OC3(c4ccccc4)O[C@@H]1[C@@H]1[C@@H]4O[C@]4(COC(C)=O)[C@@H](O)[C@]4(O)C(=O)C(C)=C[C@H]4[C@@]1(O3)[C@H](C)[C@H]2OC(=O)c1ccccc1 [YH-13] | 35700 | – | – | – | IC50 (LNcap; Homo sapiens): 4.53 nM; IC50 (22RV1; Homo sapiens): 83.2 nM; IC50 (C4-2B/ENZR; Homo sapiens): 6.79 nM; IC50 (Vcap-CRPC; Homo sapiens): 67.2 nM |
| C=C(C)[C@@]12OC3(/C=C/C=C/CCCCC)O[C@@H]1[C@@H]1[C@@H]4O[C@]4(COC(C)=O)[C@@H](O)[C@]4(O)C(=O)C(C)=C[C@H]4[C@@]1(O3)[C@H](C)[C@H]2OC(=O)c1ccccc1 [YH-19] | – | – | 64.4 | 136 | inhibitory activity on prostate cancer cells (in words) (prostate cancer cells): significant decrease in activity |
| C=C(C)[C@@]12OC3(/C=C/C=C/CCCCC)O[C@@H]1[C@@H]1[C@@H]4O[C@]4(COC(=O)c4ccccc4)[C@@H](O)[C@]4(O)C(=O)C(C)=C[C@H]4[C@@]1(O3)[C@H](C)[C@H]2OC(=O)c1ccccc1 [YH-20] | – | – | 1580 | 5760 | inhibitory activity on prostate cancer cells (in words) (prostate cancer cells): significant decrease in activity |
| C=C(C)[C@@]12OC3(/C=C/C=C/CCCCC)O[C@@H]1[C@@H]1[C@@H]4O[C@]4(CO)[C@@H](O)[C@]4(O)C(=O)C(C)=C[C@H]4[C@@]1(O3)[C@H](C)[C@H]2OC(C)=O [YH-22] | – | – | – | – | inhibitory activity on prostate cancer cells (in words) (prostate cancer cells): most prominent; also recorded: more cytotoxic; IC50 (RWPE-1; [2]): 5890 nM |
| C=C(C)[C@@]12OC3(/C=C/C=C/CCCCC)O[C@@H]1[C@@H]1[C@@H]4O[C@]4(COC(C)=O)[C@@H](O)[C@]4(O)C(=O)C(C)=C[C@H]4[C@@]1(O3)[C@H](C)[C@H]2OC(C)=O [YH-24] | 21900 | 45.8 | – | 67.3 | IC50 (LNcap): 48.2 nM; IC50 (Vcap-CRPC): 76.2 nM |
| C=C(C)C12OC3(c4ccccc4)OC1C1C4OC4(CO)C(O)C4(O)C(=O)C(C)CC4C1(O3)C(C)C2OC(C)=O (centres unmarked) [YH-35] | 42900 | 144 | 0.426 | 1.92 | IC50 (LNcap): 4.82 nM; IC50 (Vcap-CRPC): 64.2 nM |
| C=C(C)C12OC3(c4ccccc4)OC1C1C4OC4(CO)C(O)C4(O)C(=O)C(C)CC4C1(O3)C(C)C2OC(=O)c1ccccc1 (centres unmarked) [YH-36] | 14600 | 42.5 | – | – | – |
| CCCCCCCCCC12O[C@@H]3[C@@H]4[C@@H]5O[C@]5(CO)[C@@H](O)[C@]5(O)C(=O)C(C)=C[C@H]5[C@@]4(O1)[C@H](C)[C@@H](OC(C)=O)[C@]3(C(C)C)O2 [YH-37] | 10300 | – | – | – | – |
| CCCCCCCCCC12O[C@@H]3[C@@H]4[C@@H]5O[C@]5(CO)[C@@H](O)[C@]5(O)C(=O)[C@@H](C)C[C@H]5[C@@]4(O1)[C@H](C)[C@@H](OC(C)=O)[C@]3(C(C)C)O2 [YH-38] | 20600 | – | – | – | IC50 (22RV1; Homo sapiens): 5.42 nM |
| CC(C)[C@@]12OC3(c4ccccc4)O[C@@H]1[C@@H]1[C@@H]4O[C@]4(CO)[C@@H](O)[C@]4(O)C(=O)[C@@H](C)C[C@H]4[C@@]1(O3)[C@H](C)[C@H]2OC(=O)c1ccccc1 [YH-39] | 18500 | – | – | – | IC50 (22RV1; Homo sapiens): 6.73 nM |
| CC1=C[C@@H]2[C@@](O)(C1=O)[C@H](O)[C@@]1(CO)O[C@H]1[C@H]1[C@H]3OC4(c5ccccc5)O[C@@]3(C(C)C)[C@H](OC(=O)c3ccccc3)[C@@H](C)[C@@]12O4 [YH-40] | 20300 | – | – | – | – |
| C=C(C)[C@@]12OC3(C)O[C@@H]1[C@@H]1C=C(CO)C[C@]4(O)C(=O)C(C)=C[C@H]4[C@@]1(O3)[C@H](C)[C@H]2OC(=O)c1ccccc1 [YH-44] | 17400 | 4650 | 193 | 641 | IC50 (LNcap): 74.8 nM; IC50 (Vcap-CRPC): 306 nM |
| C=C(C)[C@@]12OC3(c4ccccc4)O[C@@H]1[C@@H]1[C@@H](Br)[C@@](O)(CO)[C@@H](O)[C@]4(O)C(=O)C(C)=C[C@H]4[C@@]1(O3)[C@H](C)[C@H]2OC(=O)c1ccccc1 [YH-53] | – | – | – | – | IC50 (RWPE-1; [2]): 56300 nM |
| C=C(C)C1(O)C(OC(=O)c2ccccc2)C(C)C2(O)C(C(O)C(O)(CO)C(O)C3(O)C(=O)C(C)=CC32)C1OC(=O)c1ccccc1 (centres unmarked) [YH-56] | 35100 | 47100 | 4470 | 2690 | IC50 (LNcap): 13100 nM; IC50 (Vcap-CRPC): 15400 nM |
| C=C(C)C1(O)C(O)C2C3OC3(CO)C(O)C3(O)C(=O)C(C)=CC3C2(O)C(C)C1OC(=O)c1ccccc1 (centres unmarked) [YH-57] | 41100 | 46700 | 2320 | 1870 | IC50 (LNcap): 4820 nM; IC50 (Vcap-CRPC): 40800 nM |
| C=C(C)C1(O)C(O)C2C3OC3(CO)C(O)C3(O)C(=O)C(C)=CC3C2(O)C(C)C1OC(C)=O (centres unmarked) [YH-58] | – | – | 33600 | 40200 | – |
| C=C(C)[C@@]1(O)[C@H](OC(=O)c2ccccc2)[C@@H]2[C@@H]3O[C@]3(CO)[C@@H](O)[C@]3(O)C(=O)C(C)=CC3[C@@]2(O)[C@H](C)[C@H]1OC(=O)c1ccccc1 (some centres unmarked) [YH-60] | 4810 | – | – | – | IC50 (C4-2B; Homo sapiens): 49.4 nM; IC50 (LNcap; Homo sapiens): 2.85 nM; IC50 (22RV1; Homo sapiens): 3890 nM; IC50 (C4-2B/ENZR; Homo sapiens): 73.9 nM; IC50 (Vcap-CRPC; Homo sapiens): 911 nM |
| C=C(C)C1(O)C(O)C(C)C2(O)C(C3OC3(CO)C(O)C3(O)C(=O)C(C)=CC32)C1OC(=O)C=CC=CCCCCC (centres unmarked) [YH-61] | – | – | 189 | 543 | – |
